Experimental data from PubChem BioAssay AID1259407 (Chemical Carcinogenesis Research Information System (CCRIS), 2018).
Active and inactive are the calls of the source. No rule for the calls is given here.

Tested on: CCRIS mutagenicity, Ames/micronucleus/aberration tests
Assay: CCRIS mutagenicity studies

| Compound | mutagenic call (End Point: IN VITRO CHROMOSOMAL ABERRATIONS, Test System: HUMAN PERIPHERAL LYMPHOCYTES, Metabolic Activation: NONE) | mutagenic call (End Point: IN VITRO CHROMOSOMAL ABERRATIONS, Test System: HUMAN PERIPHERAL LYMPHOCYTES, Metabolic Activation: RAT, LIVER, S-9, PHENOBARBITONE) | mutagenic call (Test System: AMES SALMONELLA TYPHIMURIUM, Strain/Indicator: TA98, Metabolic Activation: MOUSE, LIVER, S-9, Method: STANDARD PLATE) | mutagenic call (Test System: AMES SALMONELLA TYPHIMURIUM, Strain/Indicator: TA98, Metabolic Activation: NONE, Method: STANDARD PLATE) | mutagenic call (Test System: AMES SALMONELLA TYPHIMURIUM, Strain/Indicator: TA98, Metabolic Activation: RAT, LIVER, S-9, AROCLOR 1254, Method: STANDARD PLATE) | mutagenic call (Test System: AMES SALMONELLA TYPHIMURIUM, Strain/Indicator: TA100, Metabolic Activation: MOUSE, LIVER, S-9, Method: STANDARD PLATE) | mutagenic call (Test System: AMES SALMONELLA TYPHIMURIUM, Strain/Indicator: TA100, Metabolic Activation: NONE, Method: STANDARD PLATE) | mutagenic call (Test System: AMES SALMONELLA TYPHIMURIUM, Strain/Indicator: TA100, Metabolic Activation: RAT, LIVER, S-9, AROCLOR 1254, Method: STANDARD PLATE) | mutagenic call (Test System: AMES SALMONELLA TYPHIMURIUM, Strain/Indicator: TA1535, Metabolic Activation: MOUSE, LIVER, S-9, Method: STANDARD PLATE) | mutagenic call (Test System: AMES SALMONELLA TYPHIMURIUM, Strain/Indicator: TA1535, Metabolic Activation: NONE, Method: STANDARD PLATE) | mutagenic call (Test System: AMES SALMONELLA TYPHIMURIUM, Strain/Indicator: TA1535, Metabolic Activation: RAT, LIVER, S-9, AROCLOR 1254, Method: STANDARD PLATE) | mutagenic call (Test System: AMES SALMONELLA TYPHIMURIUM, Strain/Indicator: TA1537, Metabolic Activation: MOUSE, LIVER, S-9, Method: STANDARD PLATE) | mutagenic call (Test System: AMES SALMONELLA TYPHIMURIUM, Strain/Indicator: TA1537, Metabolic Activation: NONE, Method: STANDARD PLATE) | mutagenic call (Test System: AMES SALMONELLA TYPHIMURIUM, Strain/Indicator: TA1537, Metabolic Activation: RAT, LIVER, S-9, AROCLOR 1254, Method: STANDARD PLATE) | mutagenic call (Test System: AMES SALMONELLA TYPHIMURIUM, Strain/Indicator: TA1538, Metabolic Activation: MOUSE, LIVER, S-9, Method: STANDARD PLATE) | mutagenic call (Test System: AMES SALMONELLA TYPHIMURIUM, Strain/Indicator: TA1538, Metabolic Activation: NONE, Method: STANDARD PLATE) | mutagenic call (Test System: AMES SALMONELLA TYPHIMURIUM, Strain/Indicator: TA1538, Metabolic Activation: RAT, LIVER, S-9, AROCLOR 1254, Method: STANDARD PLATE) | mutagenic call (Test System: CHINESE HAMSTER OVARY, Strain/Indicator: CHO-K1-BH4 (HGPRT)/6-THIOGUANINE, Metabolic Activation: RAT, LIVER, S-9, AROCLOR (4%)) |
| --- | --- | --- | --- | --- | --- | --- | --- | --- | --- | --- | --- | --- | --- | --- | --- | --- | --- | --- |
| C#C[C@]1(O)CC[C@H]2[C@@H]3CCC4=C(CCC(=O)C4)[C@H]3CC[C@@]21C | inactive; negative | active; positive (structural changes) | inactive; negative | inactive; negative | inactive; negative | inactive; negative | inactive; negative | inactive; negative | inactive; negative | inactive; negative | inactive; negative | inactive; negative | inactive; negative | inactive; negative | inactive; negative | inactive; negative | inactive; negative | – |
| Oc1ccc2sc3ccccc3c2c1 | – | – | – | – | – | – | – | – | – | – | – | – | – | – | – | – | – | active; positive |
